Source: patent publication US8790883B2, “Methods of identifying NF-κB inhibitors” (priority 2003, dated 2014)
Ends that are not written are not given here. Peptide text beside a SMILES is read from it. * marks the point of attachment. BODIPYFLEthylmaleimide = Cc1cc(C)n2c1C=C1C=CC(CCC(=O)NCCN3C(=O)CC(*)C3=O)=[N+]1[B-]2(F)F; BODIPY = not defined here

Legend:
[1] = Cytotoxicity of NLM-DR derived peptides (MTS, FACS, microscope), Table 2
[2] = test system: LPS-induced NF-κB activation; test: More stringent NF-κB inhibition assay, second procedure: peptide internalization, washing, 24 h growth, then LPS; format: cell-based, murine; conditions: 10 μM peptide
Excerpt: Left panels show a helical wheel diagram of CC2 (A) and LZ (B) peptides. The view is from the top the molecule. The (a) through (g) positions, which are an essential feature of coiled coil sequence (Vinson, 2002, Mol. Cell. Biol.) represent sequential positions in each peptide sequence. The first (a) and fourth (d) positions that are generally occupied by hydrophobic amino acids constitute the hydrophobic core for parallel as well as antiparallel-coiled coils. Mutations that were introduced in (a) positions of the CC2 variant (BODIPY-Ant-CC2 (Mu); shown as residues 6-40 of SEQ ID NO:3, with glycine mutations corresponding to residues 6-40 of SEQ ID NO:5) or in (d) positions of the LZ variant (BODIPY-Ant-(Mu) are shown. In the right panels, 70Z3-C3 cells were incubated for 2 hours in the absence (control) or in the presence of 10 μM of cell permeable wild type (BODIPY-Ant-CC2 (WT)) or mutant (BODIPY-Ant-CC2 (Mu)) CC2 peptides (A) or wild type (BODIPY-Ant-LZ (WT)) or mutant (BODIPY-Ant-(Mu)) LZ peptides (B). The cells were then extensively washed to remove the excess peptide which had not been internalized and the cells were then diluted three times and allowed to grow for 24 hours before treatment for 5 hours with (+) or without LPS (−). NF-κB activity was measured using the β-galactosidase assay. Error bars represent the standard deviation of two independent experiments.
(A) Sequence alignment of the NEMO-derived LZ (residues 301-336 of SEQ ID NO: 12) and the GCN4 peptides (residues 23-55 of SEQ ID NO:8). Both coiled-coil motifs were aligned using clustalX. Identical and similar amino acid residues (shaded) are indicated by (!) or (*), respectively. (B) Overview and helical wheel diagram of the GCN4 coiled-coil (top view). The amino-acid sequence of GCN4 is shown with its corresponding [a-g] positions and residues that differ from the corresponding NEMO-derived LZ sequence are boxed according to their degree of conservation. Identical (open square) and similar residues (open triangle) are indicated. […] NF-κB activity was measured using the b-galactosidase assay. […]

[3] = Circular dichroism studies of helix stability; format: physicochemical
Excerpt: From circular dichroism studies (CD), it appears that CC2 and LZ peptides adopt a helicoidal structure, depending on their concentration. […] RMN and Rayon X Diffraction studies have confirmed the structure of CC2.

[4] = Analytical gel filtration, oligomeric states of peptides; format: physicochemical; conditions: 10 μM, Superdex 75, buffer with 0.1 mM DDM
Procedure: All peptides were loaded at a 10 μM concentration on a superdex 75 HR10/30 column equilibrated in a buffer containing 0.1 mM DDM to improve recovery (see “Materials and methods”). Chromatographic profiles of the CC2 mutant (dashed line) and the CC2 wild type (solid line) fused (BODIPY-Ant-CC2 (WT), BODIPY-Ant-CC2 (Mu), or not fused to the antennapedia sequence (CC2 (WT), CC2 (Mu)) are shown in left panels, and elution profiles of the LZ mutant (dashed line) and the wild type (solid line) fused (BODIPY-Ant-LZ (WT), BODIPY-Ant-LZ (Mu), or not fused to the antennapedia sequence (LZ (WT), LZ (Mu)) are represented in right panels. Elution volumes of globular protein markers are indicated by arrows: Oval, ovalbumin (43 kDa); Chym, chymotrypsinogene A (25 kDa); Ribo, Ribonuclease (13.4 kDa) and Apro, aprotinin (6.5 kDa).
The oligomeric states of peptides were determined by filtration as described in Traincard et al., 2003. In brief, 500 μl samples were loaded on a SUPERDEX™ 75 HR 10/30 column equilibrated in 50 mM Tris-HCl pH 8.0 containing 200 mM NaCl and 0.1 mM DDM, at a constant flow rate of 0.4 ml/min. The presence of the DDM detergent was added in the equilibrium buffer to minimize the adsorption in the column and to increase the peptide recovery. The column was calibrated in the same equilibrium buffer with blue dextran 2000 (void volume), dithioerythritol (total volume), bovine serum albumin (67 kDa, Rs=35.2 Å), ovalbumine (43 kDa, Rs=27.5 Å), chymotrypsinogen A (25 kDa, Rs=21.1 Å), ribonuclease A (13.7 kDa, Rs=16.4 Å), cytochrome C (12.4 kDa, Rs=17.7 Å) and aprotinin (6.5 KDa, Rs=13.5 Å).

[5] = test system: LPS-induced NF-κB activation; test: NF-κB inhibition assay, first procedure: LPS-induced NF-κB dependent β-galactosidase reporter in 70Z/3-C3 cells; format: cell-based, murine; conditions: peptide 2 h, LPS 3 h, 70Z3-C3 cells (FIG. 3D)
Procedure: The resulting cell line, 70Z3-C3, was incubated for 2 hours in the absence or in the presence of 20 μM of antennapedia peptide (Ant), or BODIPY-labeled antennapedia peptide (BODIPY-Ant), or BODIPY-labeled antennapedia peptide coupled to CC2 (BODIPY-Ant-CC2) or LZ (BODIPY-Ant-LZ) peptides, After peptide internalization, cells were treated for 5 hours with LPS (3 μg/ml, (+) in left panel) or untreated (right panel and (−) in left panel) and the NF-κB activity was measured by β-galactosidase assay. Error bars represent the standard deviation of three separate experiments. (B) Concentration dependence of inhibition of LPS-induced NF-κB activation by BODIPY-Ant-CC2 peptide (left panel) or BODIPY-Ant-LZ peptide (right panel). Cells were treated as in (A) but with different concentration of peptide as indicated. The potential of each peptide to inhibit LPS-induced NF-κB activation was measured by determining the IC50 value that correspond to 50% inhibition of LPS-induced NF-κB activation as compared to the control (no peptide) (C). (D) Effect of the N-fusion sequence of antennapedia on the inhibition of NF-κB activation. Control (no peptide) or CC2, or LZ peptides, with (BODIPY-ANT-CC2, BODIPY-ANT-LZ) or without the antennapedia sequence at the N-terminus (CC2, LZ) were incubated for 2 hours with 70Z3-C3 cells followed with (+) or without (−) the LPS-treatment for 3 hours. NF-κB activity was then measured by β-galactosidase assay.
In a first procedure 2.2×10^5 70Z/3-C3 cells in 220 μl of RPMI 1640 supplemented with 10% fetal calf serum (FCS) and 50 μM β-mercaptoethanol were placed in a 96-well plate and incubated with various concentrations of peptide (0 to 20 μM) at 37° C. in 5% CO2 incubator. After two hours an equal portion (100 μl) of each cell sample transferred in two wells containing each 10^5 cells. One aliquot of cells was then treated for 5 hours with lipopolysaccharides from Salmonella abortus (Sigma) at 0.5 μg/ml final concentration, and the other one left-treated. After 5 hours, cells were centrifuged at 400×g for 5 min at room temperature and the cell pellets were washed three times with cold PBS (250 μl) by centrifugation. Cells were then lysed in the lysis buffer (25 mM tris-phosphate buffer at pH 7.8 containing 8 mM magnesium chloride, 1 mM dithioerythreitol, 1% Triton X-100, 15% glycerol and a protease inhibitor mixture (Roche)), and samples were centrifuged at 4° C. for 20 min to clarify the lysate. The supernatant was then kept on ice, and 30 μl was then assayed to measure the β-galactosidase activity with a plate luminometer (Berthold) using the GALACTON-STAR™ as chemiluminescent substrate (BD Biosciences Clontech, Bronstein et al., 1989). Background of reaction was measured by mixing for 1 hour 30 μl of lysis buffer with the reaction buffer (196 μl) and the GALACTON-STAR™ substrate (4 μl) provided by BD Biosciences. In a second procedure and a more stringent assay, 70Z/3-C3 cells (2.2×105 in 220 μl medium) were centrifuged at 400×g at room temperature after peptide internalization for 2 hours, and cell pellets were washed three times with 200 μl of PBS by centrifugation. Cells were then diluted three times with complete medium, and allowed to grow for at least 24 hours. The following steps are identical to the first procedure.
To analyze the inhibition potential of LPS-induced NF-κB activation by cell permeable BODIPY-Ant-CC2 and BODIPY-Ant-LZ peptides, the present inventors stably transfected the murine pre-B 70Z3 cell line with p12XlacZ-kB, which bears the β-galactosidase reporter gene under the control of the NF-κB transcription factor.

Compound | Cellular uptake relative efficiency (FACS) (70Z/3-C3 cells) | Cytotoxicity Cell morphology FACS [1] | Cytotoxicity Cell morphology Microscope [1] | also measured
CC[C@H](C)[C@H](NC(=O)[C@H](CC(=O)O)NC(=O)[C@H](C)NC(=O)[C@H](CCC(N)=O)NC(=O)[C@H](C)NC(=O)[C@H](CCCCN)NC(=O)[C@H](CC(C)C)NC(=O)[C@H](CCCCN)NC(=O)[C@H](CCCCN)NC(=O)[C@H](Cc1c[nH]c2ccccc12)NC(=O)[C@H](CCCCN)NC(=O)[C@H](CCSC)NC(=O)[C@H](CCCNC(=N)N)NC(=O)[C@H](CCCNC(=N)N)NC(=O)[C@H](CC(N)=O)NC(=O)[C@H](CCC(N)=O)NC(=O)[C@H](Cc1ccccc1)NC(=O)[C@H](Cc1c[nH]c2ccccc12)NC(=O)[C@@H](NC(=O)[C@H](CCCCN)NC(=O)[C@@H](NC(=O)[C@H](CCC(N)=O)NC(=O)[C@H](CCCNC(=N)N)NC(=O)[C@H](CSC1CC(=O)N(CCNC(=O)CCC2=[N+]3C(=Cc4c(C)cc(C)n4[B-]3(F)F)C=C2)C1=O)NC(C)=O)[C@@H](C)CC)[C@@H](C)CC)C(=O)N[C@@H](Cc1ccc(O)cc1)C(=O)N[C@@H](CCCCN)C(=O)N[C@@H](C)C(=O)N[C@@H](CCCNC(=N)N)C(=O)N[C@@H](Cc1ccccc1)C(=O)N[C@@H](CCC(N)=O)C(=O)N[C@@H](C)C(=O)N[C@@H](CCC(=O)O)C(=O)N[C@@H](CCCNC(=N)N)C(=O)N[C@@H](Cc1c[nH]cn1)C(=O)N[C@@H](C)C(=O)N[C@@H](CCCNC(=N)N)C(=O)N[C@@H](CCC(=O)O)C(=O)N[C@@H](CCCCN)C(N)=O (stereo partly drawn) [BODIPY-Ant-NLM-DR] (Ac-C(BODIPYFLEthylmaleimide)RQIKIWFQNRRMKWKKLKAQADIYKARFQAERHAREK-NH2) | + |  |  | 
B-CRQIKIWFQNRRMKWKKSKGMQLEDLRQQGQQAEEAGVAKQELGDKLKEEAEQHKIV (C(BODIPY)RQIKIWFQNRRMKWKKSKGMQLEDLRQQGQQAEEAGVAKQELGDKLKEEAEQHKIV-NH2; not fully specified (N-terminus); printed as B-CRQIKIWFQNRRMKWKKSKGMQLEDLRQQGQQAEEAGVAKQELGDKLKEEAEQHKIV; reading uncertain) [BODIPY-Ant-CC2 (Mu)] |  |  |  | Effect on LPS-induced NF-κB activation [2]: did not affect the NF-κB activation
SKGMQLEDLRQQLQQAEEALVAKQELIDKLKEEAEQHKIV [CC2 (WT)] |  |  |  | Helix stability by circular dichroism [3]: helix more stable than LZ; Oligomeric state by gel filtration [4]: trimer; LPS-induced NF-κB activation, peptides not fused to antennapedia [5]: same level of activation as the control

Now from value to compound, other results behind:

Cellular uptake relative efficiency (FACS) (70Z/3-C3 cells) | Compound | Cytotoxicity Cell morphology FACS [1] | Cytotoxicity Cell morphology Microscope [1] | also measured
++++ | CC[C@H](C)[C@H](NC(=O)[C@H](CC(=O)O)NC(=O)[C@H](C)NC(=O)[C@H](CCC(N)=O)NC(=O)[C@H](C)NC(=O)[C@H](CCCCN)NC(=O)[C@H](CC(C)C)NC(=O)[C@H](CCCNC(=N)N)NC(=O)[C@H](CCCNC(=N)N)NC(=O)[C@H](CCCNC(=N)N)NC(=O)[C@H](CCCNC(=N)N)NC(=O)[C@H](CCCNC(=N)N)NC(=O)[C@H](CCCNC(=N)N)NC(=O)[C@H](CCCNC(=N)N)NC(=O)[C@H](CSC1CC(=O)N(CCNC(=O)CCC2=[N+]3C(=Cc4c(C)cc(C)n4[B-]3(F)F)C=C2)C1=O)NC(C)=O)C(=O)N[C@@H](Cc1ccc(O)cc1)C(=O)N[C@@H](CCCCN)C(=O)N[C@@H](C)C(=O)N[C@@H](CCCNC(=N)N)C(=O)N[C@@H](Cc1ccccc1)C(=O)N[C@@H](CCC(N)=O)C(=O)N[C@@H](C)C(=O)N[C@@H](CCC(=O)O)C(=O)N[C@@H](CCCNC(=N)N)C(=O)N[C@@H](Cc1c[nH]cn1)C(=O)N[C@@H](C)C(=O)N[C@@H](CCCNC(=N)N)C(=O)N[C@@H](CCC(=O)O)C(=O)N[C@@H](CCCCN)C(N)=O (stereo partly drawn) [BODIPY-R7-NLM-DR] (Ac-C(BODIPYFLEthylmaleimide)RRRRRRRLKAQADIYKARFQAERHAREK-NH2) | no | no | 
++ | CC[C@H](C)[C@H](NC(=O)[C@H](CC(=O)O)NC(=O)[C@H](C)NC(=O)[C@H](CCC(N)=O)NC(=O)[C@H](C)NC(=O)[C@H](CCCCN)NC(=O)[C@H](CC(C)C)NC(=O)[C@H](CCCNC(=N)N)NC(=O)[C@H](CCCNC(=N)N)NC(=O)[C@H](CCCNC(=N)N)NC(=O)[C@H](CCCNC(=N)N)NC(=O)[C@H](CCCNC(=N)N)NC(=O)[C@H](CCCNC(=N)N)NC(=O)[C@H](CCCNC(=N)N)NC(=O)[C@H](CCCNC(=N)N)NC(=O)[C@H](CCCNC(=N)N)NC(=O)[C@H](CSC1CC(=O)N(CCNC(=O)CCC2=[N+]3C(=Cc4c(C)cc(C)n4[B-]3(F)F)C=C2)C1=O)NC(C)=O)C(=O)N[C@@H](Cc1ccc(O)cc1)C(=O)N[C@@H](CCCCN)C(=O)N[C@@H](C)C(=O)N[C@@H](CCCNC(=N)N)C(=O)N[C@@H](Cc1ccccc1)C(=O)N[C@@H](CCC(N)=O)C(=O)N[C@@H](C)C(=O)N[C@@H](CCC(=O)O)C(=O)N[C@@H](CCCNC(=N)N)C(=O)N[C@@H](Cc1c[nH]cn1)C(=O)N[C@@H](C)C(=O)N[C@@H](CCCNC(=N)N)C(=O)N[C@@H](CCC(=O)O)C(=O)N[C@@H](CCCCN)C(N)=O (stereo partly drawn) [BODIPY-R9-NLM-DR] (Ac-C(BODIPYFLEthylmaleimide)RRRRRRRRRLKAQADIYKARFQAERHAREK-NH2) | no | no | Cytotoxicity MTS Assay ([1]; MTS cell proliferation assay (Promega)): no
